{"source": "patent US20240091144A1", "about": "“MULTI-LAYER ORAL THIN FILM” (LTS Lohmann Therapie-Systeme AG, priority 2021, published 2024)", "origin": "cited, not measured here", "key": {"[1]": {"details": "compared with (R)-ketamine"}, "[2]": {"details": "at 20° C."}}}
{"smiles": "CNC1(c2ccccc2Cl)CCCCC1=O", "note": "(racemic) [(S)-ketamine, (S)-(±)-2-(2-chlorophenyl)-2-(methylamino)cyclohexan-1-one]", "values": [{"measurement": "analgesic and anaesthetic potency relative to the (R) form", "setting": "[1]", "value": "approximately three times higher"}]}
{"smiles": "NC(CO)(CO)CO", "note": "[TRIS, tris(hydroxymethyl)aminomethane]", "values": [{"measurement": "pKs", "setting": "[2]", "value": 8.2}]}
